Experimental data taken from patent US6407205B1, “FSH-releasing peptides” (Board of Supervisors of Louisiana State University and …, priority 1997, dated 2002).
“Also recorded” adds a separate entry of the source. Like-named read-outs stand apart in the source and are kept apart here. [ ]: non-standard residue; d: D form. pGlu = O=C1CC[C@@H](C(=O)O)N1

What was measured:
[1] = tested on: FSH release from hemi-anterior pituitaries of adult male rats; assay: FSH release in vitro, incubation with hemi-anterior pituitaries of male rats (RIA); assay type: cell-based, rat; settings: for FSH (ng/ml) / FSH: 3 hr incubation
Procedure: (§1) Adult male and female Sprague-Dawley rats (Holtzmann, Madison, Wis.; 200-250 g) were housed two per cage under controlled conditions of temperature (23-25° C.) and lighting (on from 0500 to 1700 hr). The animals had free access to a pellet diet and to tap water.
(§2) After acclimatization for 5 or more days in the vivarium, male rats were killed by decapitation. Following removal of the posterior lobe, the anterior pituitary (AP) was bisected longitudinally, and each AP was incubated in a tube containing 0.5 ml Krebs-Ringer bicarbonate (5 mM ascorbic acid; pH 7.4) buffer (KRB) in an atmosphere of 95% O2/5% CO2 in a Dubnoff shaker (50 cycles per min) for a period of 60 min. Following this pre-incubation period, the APs were incubated for 3 hr in fresh KRB buffer alone (control), or in KRB containing one of various concentrations of synthetic mammalian (m)-LHRH, l-LHRH-III, l-LHRH-I, chicken (c)-LHRH-II, or salmon (s)-LHRH. The medium was then aspirated, and was stored frozen at −20° C. until radio-immunoassays (RIA) for FSH and LH were conducted. FSH and LH were measured using kits supplied by the National Institute of Arthritis Digestive Diabetes and Kidney Disease; hormone values were expressed in terms of NIH-rFSH-RP-2 and NIH-rLH-RP-3 standards. The experiments were repeated twice. The inter- and intra-assay coefficients of variation for FSH assays were 7.5% and 5.2%, respectively; and were 6.5% and 4.8% for LH assays.

[2] = tested on: FSH or LH release; settings: Yu et al., Brain Res. Bull. 1990; cited from earlier work
[3] = tested on: LH release from hemi-anterior pituitaries of adult male rats; assay: LH release in vitro, incubation with hemi-anterior pituitaries of male rats (RIA); assay type: cell-based, rat; settings: for LH / LH (ng/ml): 3 hr incubation
Procedure: as §1, §2

[4] = tested on: Petromryzon marinus (lamprey) ovaries; settings: Sower et al., Endocrinology 1993; cited from earlier work
[5] = tested on: plasma FSH; assay: FSH release in vivo, ovariectomized estrogen/progesterone-treated female rats, intravenous injection; set-up: species or system rat; settings: for Change in FSH from baseline, 10 minutes in post-injection (ng/ml): 10 minutes post-injection, saline −3.85 ± 0.82
Procedure: as §1
(§3) Female rats were ovariectomized under anesthesia with isoflurane 4 weeks prior to the in vivo experiments. Three days before blood sampling, each ovariectomized rat was injected subcutaneously with 50 μg estradiol benzoate (Sigma Chemical Co., St. Louis, Mo.) dissolved in 0.1 ml sesame oil, and 25 mg progesterone (Eli Lilly, Indianapolis, Ind.) dissolved in 0.5 ml sesame oil. One day prior to testing, each animal was implanted with a jugular-atrial catheter. On the morning of testing, polyethylene tubing (PE-50) was connected to the distal end of the jugular-atrial catheter on the rat's dorsum to facilitate blood sampling and intravenous injection. Animals were acclimatized one hour before initial blood samples were taken. Heparinized blood samples ([…]) were collected just before, and at 10, 30, and 60 minutes after injection of 0.5 ml isotonic saline or l-LHRH-III (10 or 100 pmole) in 0.5 ml isotonic saline. After removal of each blood sample, an equal volume of isotonic saline was administered to maintain blood volume.

[6] = tested on: plasma LH; assay: LH release in vivo, ovariectomized estrogen/progesterone-treated female rats, intravenous injection; set-up: species or system rat; settings: for Change in LH from baseline, 10 minutes post-injection: saline −0.070 ± 0.122
Procedure: as §1, §3

[7] = tested on: selective FSH-releasing activity; assay: In vivo screening of known LHRH's from various species for selective FSH-releasing activity; settings: unpublished data of the applicant's laboratory
Excerpt: Our laboratory also screened known LHRH's from various species for selective FSH-releasing activity; and we also evaluated the activity of 25 analogs of LHRH in in vivo assays.

[8] = Table 2, 10^−5M, KRB control 97.7 ± 20.4
[9] = Table 2, 10^−6M, KRB control 97.7 ± 20.4
[10] = Table 3, 10^−5M, KRB control 139.3 ± 16.9
[11] = Table 3, 10^−6M, KRB control 139.3 ± 16.9
[12] = Table 4, 10^−6M, KRB control 157.5 ± 13.2
[13] = Table 4, 10^−7M, KRB control 157.5 ± 13.2
[14] = Table 4, 10^−8M, KRB control 157.5 ± 13.2
[15] = Table 5, 10^−6M, KRB control 149.3 ± 17.0
[16] = Table 5, 10^−7M, KRB control 149.3 ± 17.0
[17] = Table 5, 10^−8M, KRB control 149.3 ± 17.0
[18] = 10 or 100 pmole intravenous, versus saline control

## [pGlu]HWSLEWKPG-NH2 [l-LHRH-I, reference compound]
[1]
  FSH release in vitro (result in words): small but statistically significant release of FSH; also recorded: minimal potency to release either FSH or LH
[1]; [8]
  FSH (ng/ml): **178.2 ± 17.0 ng/ml
[1]; [9]
  FSH (ng/ml): *164.0 ± 29.3 ng/ml
[2]
  activity in releasing FSH or LH in rats (result in words): relatively low activity in releasing either FSH or LH
[3]
  LH release in vitro (result in words): inactive; also recorded: minimal potency to release either FSH or LH
[3]; [10]
  LH: 120.4 ± 8.1 ng/mL
[3]; [11]
  LH: 134.1 ± 23.2 ng/mL

## pGlu-His-Trp-Ser-His-Asp-Trp-Lys-Pro-Gly-NH2 (XHWSHDWKPX; pyroGlu; C-terminal amide) [l-LHRH-III]
[1]
  FSH release in vitro (result in words): approximately equipotent toward releasing FSH
[1]; Table 2, 10^−4M, KRB control 97.7 ± 20.4
  FSH (ng/ml): ****368.6 ± 40.9 ng/ml
[1]; [8]
  FSH (ng/ml): **283.0 ± 60.8 ng/ml
[1]; [9]
  FSH (ng/ml): **278.2 ± 40.9 ng/ml
[1]; Table 2, 10^−7M, KRB control 97.7 ± 20.4
  FSH (ng/ml): ***213.0 ± 17.9 ng/ml
[1]; Table 2, 10^−8M, KRB control 97.7 ± 20.4
  FSH (ng/ml): **255.7 ± 42.4 ng/ml
[1]; Table 2, 10^−9M, KRB control 97.7 ± 20.4
  FSH (ng/ml): *228.3 ± 52.5 ng/ml
[1]; Table 2 experiment, levelled off through 10^−4 M
  concentration of maximal effect on FSH release: about 10^−6 M
[1]; Table 2 experiment, lowest concentration tested
  minimal effective concentration (MEC) for FSH release: ≤ 10^−9 M
[1]; [12]
  FSH: 215.0 ± 38.0 ng/mL
[1]; [13]
  FSH (ng/ml): *203.2 ± 16.4 ng/ml
[1]; [14]
  FSH (ng/ml): *249.3 ± 31.3 ng/ml
[1]; Table 4, 10^−9M, KRB control 157.5 ± 13.2
  FSH: 196.3 ± 21.2 ng/mL
[1]; Table 4 experiment
  MEC for a statistically significant release of FSH relative to c-LHRH-II: two orders of magnitude lower
[4]
  estradiol and progesterone release from lamprey ovaries (result in words): stimulated estradiol and progesterone release
[3]
  LH release in vitro (result in words): much weaker effect on LH release; also recorded: no LH-releasing activity
[3]; Table 3, 10^−4M, KRB control 139.3 ± 16.9
  LH (ng/ml): **236.6 ± 19.3 ng/ml
[3]; [10]
  LH (ng/ml): *202.9 ± 31.2 ng/ml
[3]; [11]
  LH (ng/ml): *233.6 ± 33.8 ng/ml
[3]; Table 3, 10^−7M, KRB control 139.3 ± 16.9
  LH: 179.9 ± 28.4 ng/mL
[3]; Table 3, 10^−8M, KRB control 139.3 ± 16.9
  LH: 165.7 ± 26.6 ng/mL
[3]; Table 3, 10^−9M, KRB control 139.3 ± 16.9
  LH: 171.8 ± 27.3 ng/mL
[3]; Table 3 experiment
  concentrations active on LH release: 10^−6-10^−4 M
[3]; [15]
  LH: 176.0 ± 9.3 ng/mL
[3]; [16]
  LH: 182.7 ± 13.7 ng/mL
[3]; [17]
  LH: 163.2 ± 6.5 ng/mL
[3]; Table 5, 10^−9M, KRB control 149.3 ± 17.0
  LH: 158.7 ± 10.2 ng/mL
[5]; 10 pmole intravenous
  Change in FSH from baseline, 10 minutes in post-injection (ng/ml): **−0.75 ± 0.37 ng/ml
[5]; 100 pmole intravenous
  Change in FSH from baseline, 10 minutes in post-injection (ng/ml): **−0.43 ± 0.61 ng/ml
[5]; [18]
  FSH release in vivo (result in words): increase in FSH in vivo (P<0.01) within ten minutes; also recorded: highly significant increase in plasma FSH 10 minutes after injection, an effect that vanished by 30 minutes post-injection; also recorded: slightly greater effect at 10 minutes that was maintained 30 minutes after injection; also recorded: caused the release of FSH in vivo, but not LH
[6]; 10 pmole intravenous
  Change in LH from baseline, 10 minutes post-injection: -0.022 ± 0.078 ng/mL
[6]; 100 pmole intravenous
  Change in LH from baseline, 10 minutes post-injection: 0.097 ± 0.077 ng/mL
[6]; [18]
  LH release in vivo (result in words): no significant increase in LH; also recorded: Neither the 10 pmole nor the 100 pmole dose of l-LHRH-III produced a statistically significant difference in LH levels

## pGlu-His-Trp-Ser-His-Gly-Trp-Tyr-Pro-Gly-NH2 (XHWSHGWYPX; HELM PEPTIDE1{[Glp].H.W.S.H.G.W.Y.P.G.[am]}$$$$V2.0; SMILES NC(=O)CNC(=O)[C@@H]1CCCN1C(=O)[C@H](Cc1ccc(O)cc1)NC(=O)[C@H](Cc1c[nH]c2ccccc12)NC(=O)CNC(=O)[C@H](Cc1c[nH]cn1)NC(=O)[C@H](CO)NC(=O)[C@H](Cc1c[nH]c2ccccc12)NC(=O)[C@H](Cc1c[nH]cn1)NC(=O)[C@@H]1CCC(=O)N1) [c-LHRH-II, reference compound]
[1]
  FSH release in vitro (result in words): low potency
[1]; [12]
  FSH (ng/ml): ***263.7 ± 17.8 ng/ml
[1]; [13]
  FSH: 209.3 ± 44.0 ng/mL
[1]; [14]
  FSH: 123.7 ± 18.0 ng/mL
[1]; Table 4 experiment, highest concentration tested
  concentration significantly increasing FSH release: 10^−6 M
[3]
  LH release in vitro (result in words): equivalent LH-releasing activity to that of m-LHRH
[3]; [15]
  LH (ng/ml): *239.0 ± 31.7 ng/ml
[3]; [16]
  LH (ng/ml): *216.3 ± 17.7 ng/ml
[3]; [17]
  LH (ng/ml): *199.3 ± 13.6 ng/ml
[3]; listed as Chicken (c) LHRH-II
  LH release in vitro (result in words): stimulated LH release
[7]
  selectivity for FSH release in vivo (result in words): slight selectivity for FSH release
[7]; listed as chicken (c) LHRH-II
  selectivity for FSH release in vivo (result in words): slightly preferential FSH-releasing activity in vivo

## pGlu-His-Trp-Ser-Tyr-Gly-Trp-Leu-Pro-Gly-NH2 (XHWSYGWLPX; HELM PEPTIDE1{[Glp].H.W.S.Y.G.W.L.P.G.[am]}$$$$V2.0; SMILES CC(C)C[C@H](NC(=O)[C@H](Cc1c[nH]c2ccccc12)NC(=O)CNC(=O)[C@H](Cc1ccc(O)cc1)NC(=O)[C@H](CO)NC(=O)[C@H](Cc1c[nH]c2ccccc12)NC(=O)[C@H](Cc1c[nH]cn1)NC(=O)[C@@H]1CCC(=O)N1)C(=O)N1CCC[C@H]1C(=O)NCC(N)=O) [s-LHRH, reference compound]
[1]; [12]
  FSH: 203.2 ± 39.2 ng/mL
[1]; [13]
  FSH (ng/ml): *233.0 ± 37.4 ng/ml
[1]; listed as Salmon (s)-LHRH
  FSH release in vitro (result in words): stimulated the release of both FSH and LH
[1]; listed as Salmon LHRH
  FSH release in vitro (result in words): low potency
[3]
  LH release in vitro (result in words): stimulated the release of both FSH and LH
[3]; [15]
  LH: 186.2 ± 13.6 ng/mL
[3]; [16]
  LH (ng/ml): *230.8 ± 38.8 ng/ml
